Test results from patent publication US20100099642A1, “TGF-BETA STIMULANT AND FURTHER AGENT TO REDUCE SIDE EFFECTS” (TCP Innovations Limited, priority 2007, published 2010).

Legend:
tgfb2 mRNA = tgfb2 mRNA level by quantitative PCR in human aortic vascular smooth muscle cells; assay type: cell-based; conditions: 24 hrs, normalised to TBP, vs vehicle
Procedure: (1995) Cardiovasc. Res. 29:848-55). […] The cells were then incubated for either 24 hrs or 72 hrs depending on the experiment. All treatment conditions were established in triplicate. The level of mRNA for tgfb1, tgfb2 and tgfb3 were estimated by quantitative PCR. The media was removed and RNA was carefully prepared using the Ambion RNAqueous4PCR kit (Ambion#1914) in accordance with the manufacturer's instructions. The purity of the RNA and the quantity was assessed spectrophotometrically. […] This analysis results in both a gel-like image as well as electrophoretic data. Indications of RNA degradation are: (a) decreasing ratio of ribosomal bands (b) additional peaks bellow the ribosomal bands (c) Decrease in overall RNA signal (d) shift towards shorter fragments. […] Next, the RNA was converted to cDNA using the ABI High-Capacity cDNA Archive Kit, in accordance with manufacturer's instructions. The qPCR assay was then set up as follow: all cDNA samples were diluted to 180 μl total volume using Molecular grade water. Samples were vortexed to ensure thorough mixing. cDNA was aliquoted into ABI 384 well plates using a multi-channel pipette, 4.5 μl of sample into each well. Samples were assayed in triplicate (that is, nine determinations in total were made for each condition, being three separate assays on each of three replicate culture wells). The assay mix and Universal Master Mix were prepared and aliquoted across the 384 well plates 5.5 μl in each well, using a single channel pipette. The final composition of each reaction (10 μl) being: Primer/Probe assay mix (×20)=0.5 μl; Universal Master Mix=5 μl; cDNA=4.5 μl. […] Quantitative PCR was performed using several primer/probe sets. […] In all quantitative PCR experiments, several additional controls were included: firstly, a control for each sample is run with no reverse transcription to ensure the mRNA sample is not contaminated with genomic DNA (although the manual design probe/primer sets were all selected to cross an exon/exon boundary, ensuring no detectable amplicon is produced from genomic DNA templates). […]

DBA/1 mice = experiment: collagen-induced arthritis, footpad thickness in DBA/1 mice; assay type: in vivo, mouse; conditions: Tamoxifen 1 mg/kg/day p.o, aspirin 30 mg/kg/day p.o, from the booster injection onwards
Procedure: Collagen-induced arthritis was induced in adult male DBA/1 mice as previously described (Courtenay et al. (1980) Nature 283:666-8). Adult (12 week old) male DBA/1 mice were divided into groups of six animals. Mice received 100 μg per mouse of bovine type II collagen (Sigma) in Freunds Complete Adjuvant (FCA) by the subcutaneous route, while a control group received an identical injection of type I collagen in FCA. Twenty-one days later, all groups of mice received an intraperitoneal booster injection containing 100 μg per mouse of the same collagen type as previously, but in the absence of adjuvant. […] Foodpad thickness was determined each day using a digital caliper EC1507 (Moore & Wright) accurate to 0.01 mm. The thickness of each footpad was determined three times on each day by a single operator blind to the treatment condition of the mouse, and the footpad thickness of each mouse on each day was reported as the mean for the three measurements for all four paws. Errors represent the standard error of the mean among the six animals in each group.

[1] = tested on: anti-carbohydrate antibodies; experiment: anti-carbohydrate antibody isotypes by direct ELISA in serum of men with coronary artery disease; assay type: in vivo, human; conditions: 3 months, Tamoxifen 20 mg once daily, aspirin 75 mg once daily, mean ± SD
Procedure: (§1) Patients continued with all other medications (statins, ACE inhibitors, beta blockers, calcium channel blockers, diuretics etc), but no patients were taking warfarin or tirofiban.
The level of anti-carbohydrate antibodies was measured by direct ELISA as previously described (Mosedale et al (2006) J. Immunol. Meth. 309:182-91). […] After a final 3 washes in PBS/Tween and single wash in PBS, 200 μl of K-blue chromogenic substrate was added to each well.
as §1
The level of anti-carbohydrate antibodies was then measured by direct ELISA using the procedure given in Example 5

Compound | Level of tgfb2 mRNA, estimated by qPCR (tgfb2 mRNA; 10 μM A) [fold-change] | Level of tgfb2 mRNA, estimated by qPCR (tgfb2 mRNA; 33 μM A) [fold-change] | Level of tgfb2 mRNA, estimated by qPCR (tgfb2 mRNA; 100 μM A) [fold-change] | reduction of maximal collagen-II induced footpad swelling (DBA/1 mice) [%] | IgG2 titre, change versus baseline [1] | IgG2 Absorbance, change versus baseline ([1]; neat serum)
CC(=O)Oc1ccccc1C(=O)O [Aspirin, acetylsalicylic acid] | 0.92 ± 0.10 | 1.00 ± 0.17 | 1.03 ± 0.16 | – | – | –
CC/C(=C(\c1ccccc1)c1ccc(OCCN(C)C)cc1)c1ccccc1 [Tamoxifen] | – | – | – | 36 | +176% ± 43% | +0.61 ± 0.17
